Laboratory results as given in EPA's ToxRefDB 2.

Tests used:
rat [1] = conditions: Sub-acute repeat dose toxicity; fischer; Oral; Gavage/Intubation; dose end: 14 day; group: systemic; systemic / hematology / leukocyte (wbc) count differential / leukocyte (wbc) + systemic / hematology / nucleated red blood cell (nrbc) / …
rat [2] = conditions: Subchronic oral toxicity in rodents, fischer, Gavage/Intubation, dose end: 13 week
rat [3] = conditions: Carcinogenicity, other, Oral, Feed, dose end: 102 week, group: systemic
rat [4] = conditions: Subchronic oral toxicity in rodents, other, Feed, dose end: 10 week, group: systemic, systemic / in life observation / body weight / body weight gain
mouse = conditions: Carcinogenicity, cd1, Oral, Feed, dose end: 104 week, group: systemic
rat [5] = conditions: Subchronic oral toxicity in rodents, sprague dawley, Feed, dose end: 90 day
rat [6] = conditions: Prenatal developmental toxicity study, sprague dawley, Oral, Gavage/Intubation, dose end: 15 GD
rat [7] = conditions: Combined chronic toxicity/carcinogenicity, sprague dawley, Oral, Feed, dose end: 24 month, group: systemic
dog [8] = conditions: Chronic toxicity, beagle, Oral, Capsule, dose end: 107 week, group: systemic
rat [9] = conditions: Multigenerational reproductive toxicity study, wistar, Oral, Feed, dose end: 2 generation
dog [10] = conditions: Subchronic oral toxicity in nonrodent, beagle, Feed, dose end: 90 day, group: systemic, systemic / hematology / leukocyte (wbc) count differential / leukocyte (wbc) + systemic / hematology / mean corpuscular hemoglobin …
rat [11] = conditions: Subchronic oral toxicity in rodents, sprague dawley, Feed, dose end: 90 day, group: systemic
dog [12] = conditions: Chronic toxicity; beagle; Oral; Feed; dose end: 52 week; group: systemic; systemic / clinical chemistry / aspartate aminotransferase (ast/sgot) / aspartate aminotransferase (ast/sgot) + systemic / clinical …
rat [13] = conditions: Prenatal developmental toxicity study, sprague dawley, Oral, Gavage/Intubation, dose end: 15 GD; remark: listed apart in the source
rat [14] = conditions: Multigenerational reproductive toxicity study, sprague dawley, Oral, Feed, dose end: 2 generation
rabbit = conditions: Prenatal developmental toxicity study, new zealand white, Oral, Gavage/Intubation, dose end: 19 GD
rat [15] = conditions: Combined chronic toxicity/carcinogenicity, sprague dawley, Oral, Feed, dose end: 24 month, group: systemic; remark: listed apart in the source
[16] = group: cholinesterase, cholinesterase / cholinesterase / cholinesterase / cholinesterase (che)
[17] = group: systemic, systemic / hematology / hematocrit (hct) / hematocrit (hct) + systemic / hematology / hemoglobin (hgb) / hemoglobin (hgb) + systemic / in …
[18] = group: systemic, systemic / hematology / polychromasia / polychromasia
[19] = systemic / pathology microscopic / nose / inflammation
[20] = systemic / organ weight / liver / absolute + systemic / organ weight / adrenal gland / absolute + systemic / organ weight / adrenal gland / …
[21] = group: cholinesterase, cholinesterase / cholinesterase / cholinesterase / plasma cholinesterase (che)
[22] = group: systemic, systemic / organ weight / thyroid gland / relative to body weight + systemic / pathology microscopic / kidney / eosinophilic focus + …
[23] = group: systemic, systemic / pathology microscopic / kidney / eosinophilic focus + systemic / pathology microscopic / kidney / hyaline droplet
[24] = group: developmental, developmental / developmental malformation / bone / incomplete ossification + systemic / in life observation / body weight / fetal weight + …
[25] = group: maternal, reproductive / reproductive performance / fertility / fertility + reproductive / reproductive performance / resorptions / resorptions + …
[26] = systemic / pathology microscopic / thyroid gland / hyperplasia + systemic / pathology microscopic / thyroid gland / hypertrophy + systemic…
[27] = systemic / organ weight / liver / relative to body weight
[28] = systemic / organ weight / liver / relative to body weight + systemic / clinical chemistry / alkaline phosphatase (alp/alk) / alkaline …
[29] = group: offspring, systemic / in life observation / body weight / offspring (pup) weight gain
[30] = group: parental, systemic / in life observation / body weight / body weight gain
[31] = systemic / clinical chemistry / globulins / globulins + systemic / clinical chemistry / glucose / glucose + systemic / in life observation…
[32] = systemic / organ weight / spleen / absolute + systemic / organ weight / spleen / relative to body weight
[33] = group: developmental, systemic / in life observation / body weight / fetal weight + developmental / developmental malformation / bone / unossified + developmental…
[34] = group: maternal, systemic / in life observation / body weight / body weight gain + systemic / in life observation / clinical signs / salivation + systemic / …
[35] = group: offspring, systemic / in life observation / body weight / offspring (pup) weight
[36] = group: developmental, systemic / in life observation / body weight / fetal weight + developmental / developmental malformation / other / other
[37] = group: maternal, reproductive / reproductive performance / aborted / aborted + systemic / in life observation / food consumption / food consumption + …
[38] = systemic / in life observation / body weight / body weight

Molecule `Cc1cccc(C)c1N` [2,6-Dimethylaniline] has an LEL (rat [1]) of 310 mg/kg/day, an LOAEL (rat [1]) of 310 mg/kg/day and an NEL (rat [1]) of 160 mg/kg/day. The NOAEL (rat [1]) was 160 mg/kg/day, the LEL (rat [2]; [16]) was 160 mg/kg/day and the LOAEL (rat [2]; [16]) was > 310 mg/kg/day. The NEL (rat [2]; [16]) was 80 mg/kg/day, the NOAEL (rat [2]; [16]) was ≥ 310 mg/kg/day and the LOAEL (rat [2]; [17]) was 310 mg/kg/day. For the same molecule, the NOAEL (rat [2]; [17]) was 160 mg/kg/day, the LEL (rat [2]; [18]) was 20 mg/kg/day and the NEL (rat [2]; [18]) was < 20 mg/kg/day. The LOAEL (rat [3]; systemic / in life observation / body weight / body weight gain) was 50 mg/kg/day, the NOAEL (rat [3]; systemic / in life observation / body weight / body weight gain + systemic / pathology microscopic / adrenal gland / adenoma + systemic / …) was 15 mg/kg/day and the LEL (rat [3]; [19]) was 15 mg/kg/day. The NEL (rat [3]; [19]) was < 15 mg/kg/day, the LEL (rat [4]) was 150 mg/kg/day and the LOAEL (rat [4]) was 150 mg/kg/day. The NEL (rat [4]) was 50 mg/kg/day and the NOAEL (rat [4]) was 50 mg/kg/day.

`CC(C)N1C(=O)N(c2ccccc2)CSC1=NC(C)(C)C` [Buprofezin] was tested, and the LOAEL (mouse; systemic / organ weight / liver / absolute) was 17.4 mg/kg/day, the NEL (mouse; [20]) was 1.82 mg/kg/day and the NOAEL (mouse; [20]) was 1.82 mg/kg/day. The LEL (mouse; systemic / organ weight / liver / absolute + systemic / organ weight / liver / relative to body weight) was 17.4 mg/kg/day, the LEL (rat [5]; [21]) was 362 mg/kg/day and the LOAEL (rat [5]; [21]) was > 362 mg/kg/day. For the same molecule, the NEL (rat [5]; [21]) was 81.8 mg/kg/day, the NOAEL (rat [5]; [21]) was ≥ 362 mg/kg/day and the LOAEL (rat [5]; [22]) was 68.6 mg/kg/day. For the same molecule, the NOAEL (rat [5]; [22]) was 13 mg/kg/day, the LEL (rat [5]; [23]) was 3.4 mg/kg/day and the NEL (rat [5]; [23]) was < 3.4 mg/kg/day. For the same molecule, the LEL (rat [6]; group: developmental, developmental / developmental malformation / bone / incomplete ossification + developmental / developmental malformation / bone / unossified) was 200 mg/kg/day, the LOAEL (rat [6]; [24]) was 800 mg/kg/day and the NEL (rat [6]; [24]) was 50 mg/kg/day. The NOAEL (rat [6]; [24]) was 200 mg/kg/day, the LOAEL (rat [6]; [25]) was 800 mg/kg/day and the NEL (rat [6]; [25]) was 50 mg/kg/day. For the same molecule, the NOAEL (rat [6]; [25]) was 200 mg/kg/day, the LEL (rat [6]; group: maternal, systemic / in life observation / water consumption / water consumption) was 200 mg/kg/day and the LOAEL (rat [7]; systemic / pathology microscopic / thyroid gland / hyperplasia + systemic / pathology microscopic / thyroid gland / hypertrophy) was 8.7 mg/kg/day. For the same molecule, the LEL (rat [7]; [26]) was 8.7 mg/kg/day, the NEL (rat [7]; [26]) was 0.9 mg/kg/day and the NOAEL (rat [7]; [26]) was 0.9 mg/kg/day. The LEL (dog [8]; [27]) was 2 mg/kg/day, the NEL (dog [8]; [27]) was < 2 mg/kg/day and the LOAEL (dog [8]; [28]) was 20 mg/kg/day. It also gave an NOAEL (dog [8]; [28]) of 2 mg/kg/day, an LEL (rat [9]; [29]) of 81.5 mg/kg/day and an LOAEL (rat [9]; [29]) of 81.5 mg/kg/day. For the same molecule, the NEL (rat [9]; [29]) was 7.89 mg/kg/day, the NOAEL (rat [9]; [29]) was 7.89 mg/kg/day and the LEL (rat [9]; [30]) was 81.5 mg/kg/day. For the same molecule, the LOAEL (rat [9]; [30]) was > 81.5 mg/kg/day, the NEL (rat [9]; [30]) was 7.89 mg/kg/day and the NOAEL (rat [9]; [30]) was ≥ 81.5 mg/kg/day.

`COC(=O)c1ccccc1S(=O)(=O)NC(=O)N(C)c1nc(C)nc(OC)n1` [Tribenuron-methyl] was tested, and the LEL (dog [10]) was 73.3 mg/kg/day, the LOAEL (dog [10]) was > 73.3 mg/kg/day and the NEL (dog [10]) was 14.9 mg/kg/day. For the same molecule, the NOAEL (dog [10]) was ≥ 73.3 mg/kg/day, the LOAEL (rat [11]; [31]) was 118 mg/kg/day and the NOAEL (rat [11]; [31]) was 7 mg/kg/day. For the same molecule, the LEL (rat [11]; [32]) was 8 mg/kg/day, the NEL (rat [11]; [32]) was < 8 mg/kg/day and the LEL (dog [12]) was 8.16 mg/kg/day. The LOAEL (dog [12]) was 8.16 mg/kg/day, the NEL (dog [12]) was 0.79 mg/kg/day and the NOAEL (dog [12]) was 0.79 mg/kg/day. For the same molecule, the LOAEL (rat [13]; group: developmental, systemic / in life observation / body weight / fetal weight + developmental / developmental malformation / bone / unossified) was 125 mg/kg/day, the LEL (rat [13]; [33]) was 125 mg/kg/day and the NEL (rat [13]; [33]) was 20 mg/kg/day. It also gave an NOAEL (rat [13]; [33]) of 20 mg/kg/day, an LEL (rat [13]; [34]) of 125 mg/kg/day and an LOAEL (rat [13]; [34]) of 125 mg/kg/day. For the same molecule, the NEL (rat [13]; [34]) was 20 mg/kg/day, the NOAEL (rat [13]; [34]) was 20 mg/kg/day and the LEL (rat [14]; [35]) was 1.9 mg/kg/day. For the same molecule, the NEL (rat [14]; [35]) was < 1.9 mg/kg/day, the NOAEL (rat [14]; [29]) was 1.9 mg/kg/day and the LOAEL (rat [14]; group: offspring, systemic / in life observation / body weight / offspring (pup) weight gain + systemic / in life observation / body weight / offspring (pup) …) was 19 mg/kg/day. The LEL (rat [14]; [30]) was 19 mg/kg/day, the LOAEL (rat [14]; [30]) was 21 mg/kg/day and the NEL (rat [14]; [30]) was 1.9 mg/kg/day. For the same molecule, the NOAEL (rat [14]; group: parental, systemic / in life observation / body weight / body weight gain + systemic / in life observation / body weight / body weight) was 2.2 mg/kg/day, the LOAEL (rabbit; group: developmental, systemic / in life observation / body weight / fetal weight) was 80 mg/kg/day and the LEL (rabbit; [36]) was 80 mg/kg/day. The NEL (rabbit; [36]) was 20 mg/kg/day, the NOAEL (rabbit; [36]) was 20 mg/kg/day and the LOAEL (rabbit; group: maternal, reproductive / reproductive performance / aborted / aborted + systemic / in life observation / food consumption / food consumption) was 80 mg/kg/day. For the same molecule, the LEL (rabbit; [37]) was 80 mg/kg/day, the NEL (rabbit; [37]) was 20 mg/kg/day and the NOAEL (rabbit; [37]) was 20 mg/kg/day. For the same molecule, the LEL (rat [15]; [38]) was 1.25 mg/kg/day, the LOAEL (rat [15]; [38]) was 12.5 mg/kg/day and the NEL (rat [15]; [38]) was < 1.25 mg/kg/day. For the same molecule, the NOAEL (rat [15]; systemic / in life observation / body weight / body weight + systemic / pathology microscopic / mammary gland / adenocarcinoma + systemic / …) was 1.25 mg/kg/day.
